Values quoted from earlier work in patent publication US20010003742A1, “Antilipemic formulation” (priority 1998, published 2001).

Conditions: gelatine itself

Q: For gelatine, which haemostatic effect is on record?
A: only displays a haemostatic effect after an addition of thrombin
